The assay has as its system mixed fungal spore suspension of Alternaria alternata, Aureobasidium pullulans, Cladosporium herbarum, Phoma violacea, and Stemphylium dendriticum. Put plainly: Evaluation as a paint film fungicide (acrylic emulsion paint on wooden test pieces, spray inoculated). The following applies: 25°C, four weeks, two scores per cell; for Fungal Growth L2: L2 (leached for two days); for Fungal Growth UL: UL (test pieces not leached); for Fungal Growth L1: L1 (leached with water spray for one day). It counts as cell-based. As for the experimental part: In the following examples, the compositions obtained were subjected to microbiological evaluation as paint film fungicides. The compositions were also tested for anti-algal properties. The microbiological testing was effected as follows: The products were tested for activity against fungi which were one or more of Alternaria alternata, Aureobasidum pullulans, Cladosporium herbarum, Phoma violacea and Stemphylium dendriticum.
The compositions to be tested were obtained as described in Examples 1 to 6 and the Comparative Examples. The compositions were added as a solid blend to samples of an exterior acrylic emulsion paint (based on Revacryl 1A latex at pH 9) in glass bottles and mixed to give final active ingredient levels in the paint of 1.0, 0.5 and 0.25% w/v.
The bottles containing paint plus biocide composition were sealed and stored at 40°C for three days.
Small wooden test pieces were prepared for each paint composition by priming and then brushing on two full even coats.
One set of the coated test pieces was stored at ambient temperature in the dark. A further set of coated test pieces was placed in a leaching device in which the test pieces were sprayed with water for one day and the test pieces were removed from the leaching device and dried. Yet a further set of coated test pieces was subjected to leaching for two days.
The coated test pieces were then transferred to a high humidity chamber. Each test piece was then spray inoculated with a mixed fungal spore suspension of Alternaria alternata, Aureobasidium pullulans, Cladosporium herbarum, Phoma violacea, and Stemphylium dendriticum.
Incubation was carried out at 25°C for four weeks. After this period the paint films were examined for fungal growth by naked eye and by stereo optical microscope.
The compositions of Examples 1 to 6 and the Comparative Examples were evaluated as paint film fungicides using the technique described previously herein. For comparative purposes paints containing only tetrachloroisophthalonitrile (NC); 3-(3,4-dichlorophenyl)-1,1-dimethylurea (DU); 2,3,5,6-thetrachloro-4-(methylsulphonyl) pyridine (DS); di-iodomethyl-4-methylphenylsulphone (AM); or zinc oxide (ZO) were also evaluated under the same conditions.

The mark [1] stands for this setting: 0.25% w/v active ingredient in paint.
[2] abbreviates: 0.5% w/v active ingredient in paint.
The mark [3] stands for this setting: 1.0% w/v active ingredient in paint.

Turning to `Cc1ccc(S(=O)(=O)C(I)I)cc1` [AM, di-iodomethyl-4-methylphenylsulphone], the “Fungal Growth L2” value is 4,4 under setting [1], 1,2 under setting [2] and 0,0 under setting [3]. Moreover, the “Fungal Growth UL” value by setting is: under setting [1], 0,0; under setting [2], 0,0; under setting [3], 0,0.

As for `CS(=O)(=O)c1c(Cl)c(Cl)nc(Cl)c1Cl` [DS, 2,3,5,6-tetrachloro-4-(methylsulphonyl)pyridine], the “Fungal Growth L2” value is, setting by setting: under setting [1], 5,4; under setting [2], 2,3; under setting [3], 1,0. The “Fungal Growth UL” value under setting [1] is 2,2, the “Fungal Growth UL” value under setting [2] is given as 1,1 and the “Fungal Growth UL” value under setting [3] is 0.1.

Take `CN(C)C(=O)Nc1ccc(Cl)c(Cl)c1` [DU, 3-(3,4-dichlorophenyl)-1,1-dimethylurea]: under setting [3], the “Fungal Growth L2” value is 5,5 and the “Fungal Growth UL” value was 5,5.

Consider `N#Cc1c(Cl)c(Cl)c(Cl)c(C#N)c1Cl` [NC, tetrachloroisophthalonitrile], for which, under setting [1], the “Fungal Growth L1” value is 4,4, the “Fungal Growth L2” value is recorded as 5,5 and the “Fungal Growth UL” value is on record as 3,4. Further, under setting [2], the “Fungal Growth L1” value is reported as 4,5, the “Fungal Growth L2” value is 3,5 and the “Fungal Growth UL” value is 2,3. For the same molecule, under setting [3], the “Fungal Growth L1” value is reported as 2,5, the “Fungal Growth L2” value is on record as 4,5 and the “Fungal Growth UL” value was 0,0.

(Values after patent EP0345955B1, “Anti-microbial composition and use thereof” (IMPERIAL CHEMICAL INDUSTRIES PLC, priority 1988, dated 1989).)
